According to ChEMBL document CHEMBL1135259, “Azapeptides as inhibitors of the hepatitis C virus NS3 serine protease” (Bioorg Med Chem Lett, 2002):

molecular target: NS3 (Hepatitis C virus, UniProt A3EZJ3); experiment: Binding affinity against Hepatitis C virus NS3 protease; set-up: species or system Hepacivirus hominis
Sequence (A3EZJ3 whole entry): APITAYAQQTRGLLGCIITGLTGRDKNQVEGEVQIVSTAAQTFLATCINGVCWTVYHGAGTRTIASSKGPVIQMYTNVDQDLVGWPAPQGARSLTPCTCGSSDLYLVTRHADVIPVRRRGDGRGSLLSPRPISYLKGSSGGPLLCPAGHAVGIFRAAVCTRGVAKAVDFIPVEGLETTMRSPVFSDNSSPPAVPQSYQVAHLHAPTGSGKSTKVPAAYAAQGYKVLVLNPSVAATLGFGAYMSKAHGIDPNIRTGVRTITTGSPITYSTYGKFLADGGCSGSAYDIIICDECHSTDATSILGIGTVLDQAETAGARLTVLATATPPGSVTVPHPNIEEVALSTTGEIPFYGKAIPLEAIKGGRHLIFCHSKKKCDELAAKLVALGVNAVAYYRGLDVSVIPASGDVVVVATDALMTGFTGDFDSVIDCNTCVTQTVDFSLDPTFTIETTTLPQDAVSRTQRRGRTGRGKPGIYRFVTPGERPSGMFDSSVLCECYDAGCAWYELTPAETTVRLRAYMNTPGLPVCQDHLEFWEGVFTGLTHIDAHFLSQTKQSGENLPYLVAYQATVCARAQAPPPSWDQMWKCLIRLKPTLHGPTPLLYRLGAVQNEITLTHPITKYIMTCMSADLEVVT

Ki [µM] | SMILES
> 100 | CCCN(NC(=O)[C@H]1CCCN1C(=O)[C@@H](NC(=O)[C@@H](NC(=O)[C@H](CC(=O)O)NC(=O)[C@H](CCC(=O)O)NC(=O)[C@@H](NC(=O)[C@H](CC(=O)O)NC(C)=O)[C@@H](C)O)C(C)C)C(C)C)C(=O)c1cc([N+](=O)[O-])cc([N+](=O)[O-])c1
160 | CCCN(NC(=O)[C@H]1CCCN1C(=O)[C@@H](NC(=O)[C@@H](NC(=O)[C@H](CC(=O)O)NC(=O)[C@H](CCC(=O)O)NC(=O)[C@@H](NC(=O)[C@H](CC(=O)O)NC(C)=O)[C@@H](C)O)C(C)C)C(C)C)C(=O)Sc1ccccc1
> 100 | CCCN(NC(=O)[C@H]1CCCN1C(=O)[C@@H](NC(=O)[C@@H](NC(=O)[C@H](CC(=O)O)NC(=O)[C@H](CCC(=O)O)NC(=O)[C@@H](NC(=O)[C@H](CC(=O)O)NC(C)=O)[C@@H](C)O)C(C)C)C(C)C)C(=O)c1ccc(C#N)cc1
200 | CCCN(NC(=O)[C@H]1CCCN1C(=O)[C@@H](NC(=O)[C@@H](NC(=O)[C@H](CC(=O)O)NC(=O)[C@H](CCC(=O)O)NC(=O)[C@@H](NC(=O)[C@H](CC(=O)O)NC(C)=O)[C@@H](C)O)C(C)C)C(C)C)C(=O)N[C@@H](CO)C(=O)N[C@@H](CCSC)C(=O)N[C@@H](CO)C(=O)O
> 100 | CCCN(NC(=O)[C@H]1CCCN1C(=O)[C@@H](NC(=O)[C@@H](NC(=O)[C@H](CC(=O)O)NC(=O)[C@H](CCC(=O)O)NC(=O)[C@@H](NC(=O)[C@H](CC(=O)O)NC(C)=O)[C@@H](C)O)C(C)C)C(C)C)C(=O)c1c(F)c(F)c(F)c(F)c1F
45 | CCCN(NC(=O)[C@H]1CCCN1C(=O)[C@@H](NC(=O)[C@@H](NC(=O)[C@H](CC(=O)O)NC(=O)[C@H](CCC(=O)O)NC(=O)[C@@H](NC(=O)[C@H](CC(=O)O)NC(C)=O)[C@@H](C)O)C(C)C)C(C)C)C(=O)OCc1ccc([N+](=O)[O-])cc1
> 100 | CCCN(NC(=O)[C@H]1CCCN1C(=O)[C@@H](NC(=O)[C@@H](NC(=O)[C@H](CC(=O)O)NC(=O)[C@H](CCC(=O)O)NC(=O)[C@@H](NC(=O)[C@H](CC(=O)O)NC(C)=O)[C@@H](C)O)C(C)C)C(C)C)C(=O)CC
> 100 | CCCCC(=O)N(CCC)NC(=O)[C@H]1CCCN1C(=O)[C@@H](NC(=O)[C@@H](NC(=O)[C@H](CC(=O)O)NC(=O)[C@H](CCC(=O)O)NC(=O)[C@@H](NC(=O)[C@H](CC(=O)O)NC(C)=O)[C@@H](C)O)C(C)C)C(C)C
> 100 | CCCN(NC(=O)[C@H]1CCCN1C(=O)[C@@H](NC(=O)[C@@H](NC(=O)[C@H](CC(=O)O)NC(=O)[C@H](CCC(=O)O)NC(=O)[C@@H](NC(=O)[C@H](CC(=O)O)NC(C)=O)[C@@H](C)O)C(C)C)C(C)C)C(=O)C(=O)OCC
> 100 | CCCN(NC(=O)[C@H]1CCCN1C(=O)[C@@H](NC(=O)[C@@H](NC(=O)[C@H](CC(=O)O)NC(=O)[C@H](CCC(=O)O)NC(=O)[C@@H](NC(=O)[C@H](CC(=O)O)NC(C)=O)[C@@H](C)O)C(C)C)C(C)C)C(=O)CCl
> 100 | CCCN(NC(=O)[C@H]1CCCN1C(=O)[C@@H](NC(=O)[C@@H](NC(=O)[C@H](CC(=O)O)NC(=O)[C@H](CCC(=O)O)NC(=O)[C@@H](NC(=O)[C@H](CC(=O)O)NC(C)=O)[C@@H](C)O)C(C)C)C(C)C)C(=O)c1ccc([N+](=O)[O-])cc1
> 200 | CSCC[C@H](NC(=O)[C@H](CO)NC(=O)NNC(=O)[C@H]1CCCN1C(=O)[C@@H](NC(=O)[C@@H](NC(=O)[C@H](CC(=O)O)NC(=O)[C@H](CCC(=O)O)NC(=O)[C@@H](NC(=O)[C@H](CC(=O)O)NC(C)=O)[C@@H](C)O)C(C)C)C(C)C)C(=O)N[C@@H](CO)C(=O)N[C@@H](Cc1ccc(O)cc1)C(=O)N[C@H](C(=O)N[C@@H](Cc1c[nH]c2ccccc12)C(=O)N[C@H](C(=O)NCC(=O)N[C@@H](CCCCN)C(=O)O)[C@@H](C)O)[C@@H](C)O
20 | CCCN(NC(=O)[C@H]1CCCN1C(=O)[C@@H](NC(=O)[C@@H](NC(=O)[C@H](CC(=O)O)NC(=O)[C@H](CCC(=O)O)NC(C)=O)C(C)C)C(C)C)C(=O)N[C@@H](CO)C(=O)N[C@@H](CCSC)C(=O)N[C@@H](CO)C(=O)N[C@@H](Cc1ccc(O)cc1)C(=O)N[C@H](C(=O)N[C@@H](Cc1c[nH]c2ccccc12)C(=O)N[C@H](C(=O)NCC(=O)N[C@@H](CCCCN)C(=O)O)[C@@H](C)O)[C@@H](C)O
> 100 | CCCN(NC(=O)[C@H]1CCCN1C(=O)[C@@H](NC(=O)[C@@H](NC(=O)[C@H](CC(=O)O)NC(=O)[C@H](CCC(=O)O)NC(=O)[C@@H](NC(=O)[C@H](CC(=O)O)NC(C)=O)[C@@H](C)O)C(C)C)C(C)C)C(=O)c1ccc(C(F)(F)F)cc1
> 100 | CCCN(NC(=O)[C@H]1CCCN1C(=O)[C@@H](NC(=O)[C@@H](NC(=O)[C@H](CC(=O)O)NC(=O)[C@H](CCC(=O)O)NC(=O)[C@@H](NC(=O)[C@H](CC(=O)O)NC(C)=O)[C@@H](C)O)C(C)C)C(C)C)C(C)=O
> 100 | CCCN(NC(=O)[C@H]1CCCN1C(=O)[C@@H](NC(=O)[C@@H](NC(=O)[C@H](CC(=O)O)NC(=O)[C@H](CCC(=O)O)NC(=O)[C@@H](NC(=O)[C@H](CC(=O)O)NC(C)=O)[C@@H](C)O)C(C)C)C(C)C)S(=O)(=O)CCl
200 | CCCN(NC(=O)[C@H]1CCCN1C(=O)[C@@H](NC(=O)[C@@H](NC(=O)[C@H](CC(=O)O)NC(=O)[C@H](CCC(=O)O)NC(C)=O)C(C)C)C(C)C)C(=O)N[C@@H](CO)C(=O)N[C@@H](CCSC)C(=O)N[C@@H](CO)C(N)=O
> 100 | CCCN(NC(=O)[C@H]1CCCN1C(=O)[C@@H](NC(=O)[C@@H](NC(=O)[C@H](CC(=O)O)NC(=O)[C@H](CCC(=O)O)NC(=O)[C@@H](NC(=O)[C@H](CC(=O)O)NC(C)=O)[C@@H](C)O)C(C)C)C(C)C)C(=O)C(F)(F)F
14 | CCCN(NC(=O)[C@H]1CCCN1C(=O)[C@@H](NC(=O)[C@@H](NC(=O)[C@H](CC(=O)O)NC(=O)[C@H](CCC(=O)O)NC(=O)[C@@H](NC(=O)[C@H](CC(=O)O)NC(C)=O)[C@@H](C)O)C(C)C)C(C)C)C(=O)OCC(Cl)(Cl)Cl

SMILES | Ki [µM]
CCCN(NC(=O)[C@H]1CCCN1C(=O)[C@@H](NC(=O)[C@@H](NC(=O)[C@H](CC(=O)O)NC(=O)[C@H](CCC(=O)O)NC(=O)[C@@H](NC(=O)[C@H](CC(=O)O)NC(C)=O)[C@@H](C)O)C(C)C)C(C)C)C(=O)Oc1ccccc1 | 8
CCCN(NC(=O)[C@H]1CCCN1C(=O)[C@@H](NC(=O)[C@@H](NC(=O)[C@H](CC(=O)O)NC(=O)[C@H](CCC(=O)O)NC(=O)[C@@H](NC(=O)[C@H](CC(=O)O)NC(C)=O)[C@@H](C)O)C(C)C)C(C)C)C(=O)Oc1ccccc1[N+](=O)[O-] | 9
CCCN(NC(=O)[C@H]1CCCN1C(=O)[C@@H](NC(=O)[C@@H](NC(=O)[C@H](CC(=O)O)NC(=O)[C@H](CCC(=O)O)NC(=O)[C@@H](NC(=O)[C@H](CC(=O)O)NC(C)=O)[C@@H](C)O)C(C)C)C(C)C)C(=O)Oc1ccc(Cl)cc1 | 16
CCN(NC(=O)[C@H]1CCCN1C(=O)[C@@H](NC(=O)[C@@H](NC(=O)[C@H](CC(=O)O)NC(=O)[C@H](CCC(=O)O)NC(=O)[C@@H](NC(=O)[C@H](CC(=O)O)NC(C)=O)[C@@H](C)O)C(C)C)C(C)C)C(=O)Oc1ccc([N+](=O)[O-])cc1 | > 100
CCCN(NC(=O)[C@H]1CCCN1C(=O)[C@@H](NC(=O)[C@@H](NC(=O)[C@H](CC(=O)O)NC(C)=O)C(C)C)C(C)C)C(=O)Oc1ccc([N+](=O)[O-])cc1 | 7
CCCN(NC(=O)[C@H]1CCCN1C(=O)[C@@H](NC(=O)[C@@H](NC(=O)[C@H](CC(=O)O)NC(=O)[C@H](CCC(=O)O)NC(C)=O)C(C)C)C(C)C)C(=O)Oc1ccc([N+](=O)[O-])cc1 | 6
